Assay results taken from publication PMC9502271, “An Investigation of the Anti-Depressive Properties of Phenylpropanoids and Flavonoids in Hemerocallis citrina Baroni” (Molecules, 2022).
Read-outs that look alike come from different tables or passages of the source.

Tests used:
CUMS rats [1] = experiment: Sucrose preference test (SPT) in CUMS rats; type: in vivo, Male Sprague-Dawley (SD) rats; details: after five weeks of administration by gastric gavage, HFPE, HFFE 25 mg/kg, fluoxetine 10 mg/kg, model group 64.44%
Procedure: (§1) The Animal Ethics Committee of Shenyang Pharmaceutical University has approved all animal testing (no. SYPU-IACUC-S2021-03-03-202). Male Sprague-Dawley (SD) rats weighing 180–200 g were supplied by Central Animal House of Shenyang Pharmaceutical University (Shenyang, China). […] They were also provided water and a regular food. Before the actual trials start, the rats should acclimate to their new environment for seven days.
(§2) A baseline test was conducted as described below before grouping. Rats were divided into five groups of 10 depending on their weight and sucrose preference. The model group, fluoxetine (10 mg/kg) group, HFPE (25 mg/kg) group, and HFFE (25 mg/kg) group were the four treatment groups using CUMS procedures. An untouchable control group was used. Based on what had been reported in the pharmacological literature the HFPE and HFFE dosages were selected. Two hours before to the daily CUMS procedure and behavioral testing, the rats received the appropriate solutions. […]
(§3) Body weights were recorded every week. […]
The SPT is used to evaluate rodent behavior associated with a human clinical symptom of depression by evaluating the capacity to seek pleasure. […] After that, the amount of liquids consumed was recorded. […]

CUMS rats [2] = experiment: Open-field test (OFT) in CUMS rats; type: in vivo, Male Sprague-Dawley (SD) rats; details: 5 min test, HFPE, HFFE 25 mg/kg, fluoxetine 10 mg/kg, compared with model group
Procedure: as §1, §2, §3
To assess the effects of HFPE and HFFE on exploratory behavior of rats administered CUMS, OFT carried out in the same manner as literature. Each rat was placed in its own square in the center of a black box that measured 100 cm × 100 cm × 40 cm. […] Both the crossing score and the rearing score for each animal were recorded. […]

CUMS rats [3] = experiment: Forced swimming test (FST) in CUMS rats; type: in vivo, Male Sprague-Dawley (SD) rats; details: HFPE, HFFE 25 mg/kg, fluoxetine 10 mg/kg, compared with CUMS model group
Procedure: as §1
as §2, with “solutions. All of the medications were administered through gastric gavage at a volume of 3 mL/kg of body weight and dissolved in sodium carboxymethylcellulose (CMC-Na) at a concentration of 0.3%.” for “solutions.”
as §3
The FST protocol was carried out as described in previous literature. […] The time the rat’s immobility duration in the last five minutes of their six-minute swim in the bucket was recorded. […]

[4] = Body weight growth rate of CUMS rats; type: in vivo, Male Sprague-Dawley (SD) rats; details: 5 weeks, HFPE, HFFE 25 mg/kg, fluoxetine 10 mg/kg, gastric gavage
Procedure: as §1
as §2, with “solutions. All of the medications were administered through gastric gavage at a volume of 3 mL/kg of body weight and dissolved in sodium carboxymethylcellulose (CMC-Na) at a concentration of 0.3%. Days 76–79, 80, and 81 after the final dosage of the medication, respectively, saw the completion of the SPT, OFT, and FST.” for “solutions.”
as §3

IL-6 = IL-6 level in hippocampus of CUMS rats, ELISA; type: in vivo, Male Sprague-Dawley (SD) rats; details: after 5 weeks of therapy, HFPE, HFFE 25 mg/kg, fluoxetine 10 mg/kg
Procedure: as §1, §2
(§4) The serum and hippocampal tissue of rats were taken. […] The optical density value was calculated after the reaction by setting the microtiter plate at 450 nm. The amount of CORT in the serum and the amounts of IL-6, IL-1β, and TNF-α in the hippocampus tissue were calculated using the standard curve.

IL-1β = IL-1β level in hippocampus of CUMS rats, ELISA; type: in vivo, Male Sprague-Dawley (SD) rats; details: after 5 weeks of therapy, HFPE, HFFE 25 mg/kg, fluoxetine 10 mg/kg
Procedure: as §1, §2, §4

TNF-α = TNF-α level in hippocampus of CUMS rats, ELISA; type: in vivo, Male Sprague-Dawley (SD) rats; details: after 5 weeks of therapy, HFPE, HFFE 25 mg/kg, fluoxetine 10 mg/kg
Procedure: as §1, §2, §4

[5] = tested on: NO production induced by LPS in BV2 cells; experiment: Inhibition of NO production in LPS-induced BV2 microglial cells (Griess reagent); type: cell-based; details: for IC50: compound test concentrations 3.125 to 100 μM, mean ± SD (n = 3), read-out: IC50 NO Inhibitory
Procedure: (§5) BV2 microglia cells were purchased from iCell Bioscience Inc. (Shanghai, China). The cells were grown at 37 °C in a humid environment with 5% CO2. In DMEM with 10% fetal bovine serum and 1% penicillin-streptomycin solution, they were maintained alive. The following assays were carried out while the cells were in the exponential growth phase (subcultured 2–3 times).
To determine how much NO is produced, the literature was consulted. Equal parts of the Griess reagent (1% sulfanilamide and 0.1% N-(1-naphthyl) ethylenediamine dihydrochloride in 2.5% phosphoric acid) were combined with the sample-treated cell culture medium for 5 min at room temperature and in the dark. It was determined that the absorbance was at 540 nm using a microplate reader. The trials were conducted simultaneously in triplicate.

BV2 microglial cells = experiment: CCK8 cytotoxic activity in BV2 microglial cells; type: cell-based; details: compound test concentrations 3.125 to 100 μM, read-out: IC50 Cell Viability
Procedure: as §5
The cytotoxic activity was assessed using the CCK8 test. In a 96-well plate, BV2 microglial cells (5 × 10^4 cells/well) were placed in each well and incubated for 12 h. After one hour with each substance, LPS (1 μg/mL) was applied to the BV2 microglia cells for an additional 24 h. The CCK8 solution was then incubated with BV2 cells for 1 h at 37 °C. The absorbance at 450 nm was measured using a plate reader (Molecular Devices, San Jose, CA, USA). The cells that had not been treated were assumed to have a 100% optical density.

[6] = Mus musculus, BV-2, LPS-induced BV2 cells
[7] = Mus musculus, BV-2, CCK8, LPS 1 μg/mL 24 h

Row | IC50 [5, 6] [µM] | SMILES | IC50 (BV2 microglial cells; [7]) [µM] | other results
1 | < 100 | C[C@@H]1O[C@@H](OC[C@H]2O[C@@H](Oc3c(-c4ccc(O)cc4)oc4cc(O)cc(O)c4c3=O)[C@H](O[C@@H]3O[C@@H](C)[C@H](O)[C@@H](O)[C@H]3O)[C@@H](O)[C@@H]2O)[C@H](O)[C@H](O)[C@H]1O [Compound 37, kaempferol-3-O-[α-L-rhamnopyranosyl-(1→6)]-[α-L-rhamnopyranosyl-(1→2)]-β-D-glucopyranoside] | > 100 | IC50 ([5]; LPS-induced BV2 cells): 96.1 ± 11.6 µM
2 | > 100 | O=c1c(O[C@@H]2O[C@H](CO)[C@@H](O)[C@H](O)[C@H]2O)c(-c2ccc(O)cc2)oc2cc(O)cc(O)c12 [Compound 33, kaempferol-3-O-β-D-glucopyranoside] | > 100 | 
3 | > 100 | COC(=O)[C@@]1(O)C[C@H](OC(=O)/C=C\c2ccc(O)cc2)[C@H](O)[C@@H](O)C1 [Compound 6, 3-O-(Z)-p-coumaroylquinic acid methyl ester] | > 100 | 
4 | > 100 | O=C(/C=C/c1ccc(O)cc1)O[C@H]1C[C@@](O)(C(=O)O)C[C@H](O)[C@@H]1O [Compound 11, 5-O-(E)-p-coumaroylquinic acid] | > 100 | 
5 | > 100 | O=c1c(O[C@@H]2O[C@H](CO)[C@@H](O)[C@H](O)[C@H]2O)c(-c2ccc(O)c(O)c2)oc2cc(O)cc(O)c12 [Compound 19, quercetin-3-O-β-D-glucopyranoside] | > 100 | 

The next lines start with the compound.

Row | SMILES | IC50 [5, 6] [µM] | IC50 (BV2 microglial cells; [7]) [µM] | other results
6 | CNCCC(Oc1ccc(C(F)(F)F)cc1)c1ccccc1 (stereo not shown) [fluoxetine] |  |  | sucrose preference (CUMS rats [1]): 82.40%; OFT rearing score (exploratory activity) (CUMS rats [2]): improved the rearing score; FST immobility time (CUMS rats [3]): reduced immobility; growth rate of body weight [4]: alleviate the reduction in body weight; IL-6 level in hippocampus (IL-6): obviously reduced; IL-1β level in hippocampus (IL-1β): obviously reduced; TNF-α level in hippocampus (TNF-α): obviously reduced
7 | COc1cc(-c2oc3cc(O)cc(O)c3c(=O)c2O[C@@H]2O[C@H](CO[C@@H]3O[C@@H](C)[C@H](O)[C@@H](O)[C@H]3O)[C@@H](O)[C@H](O)[C@H]2O[C@@H]2O[C@@H](C)[C@H](O)[C@@H](O)[C@H]2O)ccc1O [Compound 29, isorhamnetin-3-O-α-L-rhamnopyranosyl-(1→2)-[α-L-rhamnopyranosyl-(1→6)-β-D-glucopyranoside]] | > 100 | > 100 | 
8 | O=C(C=Cc1ccc(O)cc1)OC1CC2(O)CC(OC2=O)C1O (stereo not shown) [Compound 8, 3-O-(Z)-p-coumaroylquinide] |  |  | inhibitory effects on NO production in comparison with the positive drug indomethacin ([5]; LPS-induced BV2 cells): stronger inhibitory effects; IC50 (BV2 microglial cells; CCK8, LPS 1 μg/mL 24 h): > 100 µM
9 | O=C(O)/C=C\c1ccc(O)cc1 [Compound 2, (Z)-p-coumaric acid] | > 100 | > 100 | 
10 | COc1cc(/C=C/C(=O)O[C@@H]2C[C@@](O)(C(=O)O)C[C@@H](O)[C@@H]2O)ccc1O [Compound 15, 3-O-(E)-feruloylquinic acid] | > 100 | > 100 | 
11 | COc1cc(-c2oc3cc(O)cc(O)c3c(=O)c2O[C@@H]2O[C@H](CO)[C@H](O)[C@H](O)[C@H]2O)ccc1O [Compound 25, isorhamnetin-3-O-β-D-galactopyranoside] |  | > 100 | inhibitory effects on NO production in comparison with the positive drug indomethacin ([5]; LPS-induced BV2 cells): stronger inhibitory effects
